Test results: paper PMC4467461, “Small-molecule activation of SERCA2a SUMOylation for the treatment of heart failure” (Nature Communications, 2015)

Target: T1, ubiquitin-activating enzyme (Ub E1) (Homo sapiens, UniProt P22314)
T1 sequence (P22314 1-1058): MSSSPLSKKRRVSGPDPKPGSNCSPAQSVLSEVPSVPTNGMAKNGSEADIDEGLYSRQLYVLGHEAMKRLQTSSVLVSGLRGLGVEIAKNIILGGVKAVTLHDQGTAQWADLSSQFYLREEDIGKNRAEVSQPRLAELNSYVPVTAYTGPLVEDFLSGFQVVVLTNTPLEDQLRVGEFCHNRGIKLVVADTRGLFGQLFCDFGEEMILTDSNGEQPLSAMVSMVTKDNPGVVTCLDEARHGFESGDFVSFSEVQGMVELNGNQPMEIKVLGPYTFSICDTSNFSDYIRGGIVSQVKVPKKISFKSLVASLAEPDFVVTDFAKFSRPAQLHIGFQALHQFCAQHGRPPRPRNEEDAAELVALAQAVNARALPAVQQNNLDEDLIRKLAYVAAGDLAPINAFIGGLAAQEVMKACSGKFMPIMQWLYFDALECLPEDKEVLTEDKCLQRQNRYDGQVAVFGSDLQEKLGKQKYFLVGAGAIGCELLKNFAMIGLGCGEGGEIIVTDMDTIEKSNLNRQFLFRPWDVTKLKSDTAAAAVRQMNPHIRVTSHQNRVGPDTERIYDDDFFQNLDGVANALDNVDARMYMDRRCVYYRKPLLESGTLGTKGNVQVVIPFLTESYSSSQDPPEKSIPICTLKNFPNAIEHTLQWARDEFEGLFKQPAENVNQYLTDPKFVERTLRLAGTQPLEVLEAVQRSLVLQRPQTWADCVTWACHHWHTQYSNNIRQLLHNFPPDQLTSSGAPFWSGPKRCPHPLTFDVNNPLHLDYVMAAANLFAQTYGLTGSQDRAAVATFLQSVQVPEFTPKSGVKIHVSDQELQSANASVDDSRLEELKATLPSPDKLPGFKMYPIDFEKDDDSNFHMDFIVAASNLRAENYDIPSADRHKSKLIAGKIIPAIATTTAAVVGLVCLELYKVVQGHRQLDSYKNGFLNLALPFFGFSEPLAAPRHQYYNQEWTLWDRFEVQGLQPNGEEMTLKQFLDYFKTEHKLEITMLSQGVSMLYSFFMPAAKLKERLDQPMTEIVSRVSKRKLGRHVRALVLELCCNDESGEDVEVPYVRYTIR
Experiment: Ubiquitin-activating E1 enzyme activity (ATP hydrolysis and in vitro conjugation assays)
Type: biochemical
Conditions: at concentrations up to 100 μM
Protocol: Biochemical activity of SUMO-specific E1 enzymes was examined by ATPase assay and in-vitro gel-shifting assays. ATP hydrolysis activity of E1 enzymes was measured by using pyrophosphate assay kit (Abcam Inc.). E1 (0.05 μM), 0.25 μM E2, 12.5 μM SUMO-1 and 1 mM ATP with N106 or DMSO were used for the assays. The E1-thioester formation was analysed in reaction mixtures containing 0.05 μM E1, 12.5 μM SUMO-1 and 1 mM ATP with N106 or DMSO. The E1-dependent E2-SUMO-1 thioester formation was assessed using reaction containing 0.05 μM E1, 0.25 μM E2, 12.5 μM SUMO-1 and 1 mM ATP with N106 or DMSO. Assays were incubated at 37 °C for 30 min and were mixed with non-reducing sample buffer, and analysed in non-reducing condition. Western blotting using antibodies against SAE2 and Ubc9 detected the SUMO conjugations. […]
Supplementary Figure 5. […] Ubiquitin activating E1 enzyme activity was determined by ATP hydrolysis and in vitro conjugation assays. […] Inorganic pyrophosphate resulting from ATP hydrolysis in E1-catalazed ubiquitin activity was quantified with the use of a fluorogenic pyrophosphate assay kit. […] Thioester bond formation between ubiquitin specific E1 enzyme and ubiquitin were detected by Western blot analysis. […] E1-dependent thioester bond formation between E2 and ubiquitin was detected by Western blotting with anti-ubiquitin antibody. […]

in-vitro activity of Ub E1 (ubiquitin activation, conjugation of ubiquitin to Ub E1, Ub E1-dependent conjugation to E2 cdc32): did not significantly stimulate
SMILES: COc1ccc(-c2nnc(Nc3nc4c(OC)cccc4s3)o2)cc1 [Compound N106, N-(4-methoxybenzo[d]thiazol-2-yl)-5-(4-methoxyphenyl)-1,3,4-oxadiazol-2-amine]
